Columns and labels:
ATR kinase = target: T1, ATR kinase (Homo sapiens, UniProt Q13535); assay: Assay b) ATR cellular potency (pChk1 Ser345 in HT29 cells after 4NQO); format: cell-based; conditions: HT29 cells, 4NQO, pChk1 Ser345; may be geometric mean of several tests; read-out: Assay b) ATR Cell IC50
T1 construct: measuring a decrease in phosphorylation of Chk1 (Ser 345) in HT29 cells; endogenous in cells; host or cells: HT29 cells (ECACC #85061109)
Description: Assay b): ATR Cellular Potency
ATR is a PI 3-kinase-related kinase which phosphorylates multiple substrates on serine or threonine residues in response to DNA damage during or replication blocks. Chk1, a downstream protein kinase of ATR, plays a key role in DNA damage checkpoint control. Activation of Chk1 involves phosphorylation of Ser317 and Ser345 (the latter regarded as the preferential target for phosphorylation/activation by ATR).
The following morning compound of Formula (I) in 100% DMSO were added to assay plates by acoustic dispensing. After 1 h incubation at 37° C. and 5% CO2. 40 nl of 3 mM 4NQO in 100% DMSO was added to all wells by acoustic dispensing, except minimum control wells which were left untreated with 4NQO to generate a null response control. Plates were returned to the incubator for a further 1 h. […] Then 20 μl of 0.1% Triton X100 in PBS was added and incubated for 10 minutes at r.t., to permeabalise cells. Then the plates were washed once with 50 μl/well PBS, using a Biotek EL405 plate washer.
After 2 h incubation at r.t., the plates were washed three times with 50 μl/well PBS, using a Biotek EL405 plate washer, and plates were then sealed with black plate seals until read. Plates were read using an ArrayScan VTI instrument, using an XF53 filter with 10× objective.

PI3K-α = PI3K-α (Homo sapiens, UniProt P42336); assay: Assay c) PI3K cellular potency (phospho-Akt T308 ELISA in BT474 cells); format: cell-based; conditions: BT474 cells, 2 h, phospho-AKT T308; may be geometric mean of several tests; read-out: Assay c) PI3Kα Cell IC50
PI3K-α, sequence (P42336 whole entry): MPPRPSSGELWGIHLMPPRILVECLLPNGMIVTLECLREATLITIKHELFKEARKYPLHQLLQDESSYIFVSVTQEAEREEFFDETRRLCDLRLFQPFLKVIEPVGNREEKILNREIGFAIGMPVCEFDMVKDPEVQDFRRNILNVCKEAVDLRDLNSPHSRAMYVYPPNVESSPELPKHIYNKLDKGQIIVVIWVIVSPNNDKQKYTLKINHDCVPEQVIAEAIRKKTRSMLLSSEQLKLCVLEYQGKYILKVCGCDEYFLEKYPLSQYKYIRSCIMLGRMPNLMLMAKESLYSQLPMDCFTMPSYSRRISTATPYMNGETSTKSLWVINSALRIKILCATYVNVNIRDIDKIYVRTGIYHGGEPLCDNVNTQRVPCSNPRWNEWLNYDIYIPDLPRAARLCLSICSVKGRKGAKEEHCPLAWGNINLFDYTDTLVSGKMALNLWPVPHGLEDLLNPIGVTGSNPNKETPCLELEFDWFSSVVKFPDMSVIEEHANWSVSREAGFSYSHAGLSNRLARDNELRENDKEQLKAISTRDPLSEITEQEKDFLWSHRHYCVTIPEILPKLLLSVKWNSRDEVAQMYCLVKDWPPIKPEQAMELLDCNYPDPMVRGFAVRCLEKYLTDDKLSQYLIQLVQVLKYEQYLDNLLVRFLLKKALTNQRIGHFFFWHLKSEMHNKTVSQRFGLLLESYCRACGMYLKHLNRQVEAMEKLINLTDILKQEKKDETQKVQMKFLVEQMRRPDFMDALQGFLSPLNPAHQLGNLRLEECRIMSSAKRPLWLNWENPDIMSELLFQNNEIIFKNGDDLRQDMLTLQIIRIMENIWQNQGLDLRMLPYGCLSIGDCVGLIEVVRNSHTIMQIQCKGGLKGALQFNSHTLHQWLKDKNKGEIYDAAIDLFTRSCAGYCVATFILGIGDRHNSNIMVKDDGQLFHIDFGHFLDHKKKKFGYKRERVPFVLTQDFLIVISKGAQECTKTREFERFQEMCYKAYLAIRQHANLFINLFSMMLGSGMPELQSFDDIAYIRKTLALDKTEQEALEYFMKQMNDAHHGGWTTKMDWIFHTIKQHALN
Description: Assay c): PI3K Cellular Potency
This assay was used to measure PI3K-α inhibition in cells. PDK1 was identified as the upstream activation loop kinase of protein kinase B (Akt 1), which is essential for the activation of PKB. Activation of the lipid kinase phosphoinositide 3 kinase (PI3K) is critical for the activation of PKB by PDK1.
Following ligand stimulation of receptor tyrosine kinases, PI3K is activated, which converts PIP2 to PIP3, which is bound by the PH domain of PDK1 resulting in recruitment of PDK1 to the plasma membrane where it phosphorylates AKT at Thr308 in the activation loop.
The aim of this cell-based mode of action assay is to identify compounds that inhibit PDK activity or recruitment of PDK1 to membrane by inhibiting PI3K activity. Phosphorylation of phospho-Akt (T308) in BT474c cells following treatment with compounds for 2 h is a direct measure of PDK1 and indirect measure of PI3K activity.
BT474 cells (human breast ductal carcinoma, ATCC HTB-20) were seeded into black 384 well plates (Costar, #3712) at a density of 5600 cells/well in DMEM containing 10% FBS and 1% glutamine and allowed to adhere overnight.
The following morning compounds in 100% DMSO were added to assay plates by acoustic dispensing. After a 2 h incubation at 37° C. and 5% CO2, the medium was aspirated and the cells were lysed with a buffer containing 25 mM Tris, 3 mM EDTA, 3 mM EGTA, 50 mM sodium fluoride, 2 mM Sodium orthovanadate, 0.27M sucrose, 10 mM β-glycerophosphate, 5 mM sodium pyrophosphate, 0.5% Triton X-100 and complete protease inhibitor cocktail tablets (Roche #04 693 116 001, used 1 tab per 50 ml lysis buffer).
After 20 minutes, the cell lysates were transferred into ELISA plates (Greiner #781077) which had been pre-coated with an anti total-AKT antibody in PBS buffer and non-specific binding was blocked with 1% BSA in PBS containing 0.05% Tween 20. Plates were incubated over night at 4° C. The next day the plates were washed with PBS buffer containing 0.05% Tween 20 and further incubated with a mouse monoclonal anti-phospho AKT T308 for 2 h. Plates were washed again as above before addition of a horse anti-mouse-HRP conjugated secondary antibody. Following a 2 h incubation at r.t., plates were washed and QuantaBlu substrate working solution (Thermo Scientific #15169, prepared according to provider's instructions) was added to each well. The developed fluorescent product was stopped after 60 minutes by addition of Stop solution to the wells. Plates were read using a Tecan Safire plate reader using 325 nm excitation and 420 nm emission wavelengths respectively. Except where specified, reagents contained in the Path Scan Phospho AKT (Thr308) sandwich ELISA kit from Cell Signalling (#7144) were used in this ELISA assay.

T1 sequence (Q13535 whole entry): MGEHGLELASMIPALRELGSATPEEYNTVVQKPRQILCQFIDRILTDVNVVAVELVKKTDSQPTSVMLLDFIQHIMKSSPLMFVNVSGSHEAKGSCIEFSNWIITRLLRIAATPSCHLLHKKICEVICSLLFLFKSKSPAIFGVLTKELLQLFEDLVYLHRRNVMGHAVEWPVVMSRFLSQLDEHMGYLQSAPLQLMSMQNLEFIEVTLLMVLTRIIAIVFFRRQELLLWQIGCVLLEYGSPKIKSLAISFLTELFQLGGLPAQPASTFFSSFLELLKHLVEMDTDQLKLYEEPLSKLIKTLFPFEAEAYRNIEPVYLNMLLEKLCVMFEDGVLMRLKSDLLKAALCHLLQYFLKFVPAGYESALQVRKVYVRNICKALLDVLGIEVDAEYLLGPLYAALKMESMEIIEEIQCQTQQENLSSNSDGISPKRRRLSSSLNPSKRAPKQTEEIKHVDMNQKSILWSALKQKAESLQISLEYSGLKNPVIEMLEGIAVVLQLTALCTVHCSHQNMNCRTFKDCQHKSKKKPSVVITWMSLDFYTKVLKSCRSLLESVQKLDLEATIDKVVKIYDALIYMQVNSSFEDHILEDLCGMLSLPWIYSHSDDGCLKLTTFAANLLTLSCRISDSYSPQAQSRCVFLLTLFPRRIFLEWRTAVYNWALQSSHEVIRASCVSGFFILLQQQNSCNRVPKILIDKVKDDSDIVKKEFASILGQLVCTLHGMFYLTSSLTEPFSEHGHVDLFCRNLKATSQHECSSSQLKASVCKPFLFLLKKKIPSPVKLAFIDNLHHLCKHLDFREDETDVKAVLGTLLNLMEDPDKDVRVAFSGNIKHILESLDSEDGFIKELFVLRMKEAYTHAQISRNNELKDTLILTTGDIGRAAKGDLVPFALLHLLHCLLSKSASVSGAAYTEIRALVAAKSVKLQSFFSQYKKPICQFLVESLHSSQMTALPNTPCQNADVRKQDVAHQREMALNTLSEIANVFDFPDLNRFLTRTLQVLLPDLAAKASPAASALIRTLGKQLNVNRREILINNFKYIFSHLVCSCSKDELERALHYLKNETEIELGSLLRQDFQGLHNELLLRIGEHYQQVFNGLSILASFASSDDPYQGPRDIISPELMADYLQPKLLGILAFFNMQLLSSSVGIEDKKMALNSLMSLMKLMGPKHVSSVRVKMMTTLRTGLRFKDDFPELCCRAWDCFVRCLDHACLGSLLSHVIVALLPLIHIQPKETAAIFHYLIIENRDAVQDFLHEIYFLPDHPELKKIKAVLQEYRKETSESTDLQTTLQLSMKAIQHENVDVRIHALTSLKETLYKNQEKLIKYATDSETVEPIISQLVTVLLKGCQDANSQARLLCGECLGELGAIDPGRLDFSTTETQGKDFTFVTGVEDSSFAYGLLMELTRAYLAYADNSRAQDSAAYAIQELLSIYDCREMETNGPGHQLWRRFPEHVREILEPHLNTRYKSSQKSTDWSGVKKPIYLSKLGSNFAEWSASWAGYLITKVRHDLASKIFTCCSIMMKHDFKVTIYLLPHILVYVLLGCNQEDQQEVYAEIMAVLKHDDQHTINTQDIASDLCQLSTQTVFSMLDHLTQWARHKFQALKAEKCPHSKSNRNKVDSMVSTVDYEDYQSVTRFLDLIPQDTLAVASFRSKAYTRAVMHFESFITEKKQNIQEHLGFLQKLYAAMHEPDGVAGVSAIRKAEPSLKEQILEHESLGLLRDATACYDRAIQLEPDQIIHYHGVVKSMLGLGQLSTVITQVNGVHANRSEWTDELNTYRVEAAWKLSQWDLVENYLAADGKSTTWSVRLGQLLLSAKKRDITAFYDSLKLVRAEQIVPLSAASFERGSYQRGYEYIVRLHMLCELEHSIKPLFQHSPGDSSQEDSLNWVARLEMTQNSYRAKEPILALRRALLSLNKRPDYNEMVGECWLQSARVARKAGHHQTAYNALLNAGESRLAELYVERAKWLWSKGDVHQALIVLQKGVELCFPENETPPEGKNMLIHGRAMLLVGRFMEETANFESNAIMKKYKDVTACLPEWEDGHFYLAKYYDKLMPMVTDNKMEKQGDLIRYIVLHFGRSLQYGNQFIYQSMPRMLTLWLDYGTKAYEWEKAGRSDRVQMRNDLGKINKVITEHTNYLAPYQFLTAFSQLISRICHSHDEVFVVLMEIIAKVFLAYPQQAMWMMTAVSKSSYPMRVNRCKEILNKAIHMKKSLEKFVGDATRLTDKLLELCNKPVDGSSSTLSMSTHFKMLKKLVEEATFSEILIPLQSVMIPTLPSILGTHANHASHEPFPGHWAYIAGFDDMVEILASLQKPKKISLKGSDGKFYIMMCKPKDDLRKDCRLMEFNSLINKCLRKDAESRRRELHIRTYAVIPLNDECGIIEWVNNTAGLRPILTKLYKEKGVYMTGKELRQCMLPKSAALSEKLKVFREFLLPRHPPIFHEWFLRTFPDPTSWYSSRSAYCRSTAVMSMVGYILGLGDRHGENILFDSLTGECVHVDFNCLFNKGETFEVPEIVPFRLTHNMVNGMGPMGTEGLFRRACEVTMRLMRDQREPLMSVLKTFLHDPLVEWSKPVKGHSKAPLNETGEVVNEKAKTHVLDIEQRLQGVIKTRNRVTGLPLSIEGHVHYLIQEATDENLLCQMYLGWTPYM
T1 sequence (Q8WXE1 whole entry partner): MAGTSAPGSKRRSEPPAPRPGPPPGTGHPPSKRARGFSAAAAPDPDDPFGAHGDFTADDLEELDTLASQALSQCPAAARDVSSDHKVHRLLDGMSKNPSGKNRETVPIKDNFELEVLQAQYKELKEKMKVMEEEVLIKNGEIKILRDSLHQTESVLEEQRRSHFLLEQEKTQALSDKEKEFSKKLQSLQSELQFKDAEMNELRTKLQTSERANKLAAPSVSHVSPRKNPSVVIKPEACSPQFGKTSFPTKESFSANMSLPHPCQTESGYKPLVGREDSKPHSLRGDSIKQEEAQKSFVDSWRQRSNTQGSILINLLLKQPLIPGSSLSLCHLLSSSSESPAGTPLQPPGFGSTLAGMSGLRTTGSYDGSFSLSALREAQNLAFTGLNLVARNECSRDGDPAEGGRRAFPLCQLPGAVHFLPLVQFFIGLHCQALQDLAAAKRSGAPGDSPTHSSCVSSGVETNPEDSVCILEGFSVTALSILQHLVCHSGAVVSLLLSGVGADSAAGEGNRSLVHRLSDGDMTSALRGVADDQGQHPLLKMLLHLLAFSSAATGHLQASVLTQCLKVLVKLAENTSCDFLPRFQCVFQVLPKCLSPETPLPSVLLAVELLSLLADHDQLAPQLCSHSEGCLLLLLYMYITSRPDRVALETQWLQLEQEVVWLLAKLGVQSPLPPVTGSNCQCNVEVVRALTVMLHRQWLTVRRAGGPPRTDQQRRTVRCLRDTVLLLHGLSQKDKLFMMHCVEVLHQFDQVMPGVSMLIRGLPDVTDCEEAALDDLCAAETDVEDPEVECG

IC50 (ATR kinase) [µM] | IC50 (PI3K-α) [µM] | SMILES
> 30 | 22.9 | CC(C)n1c(=O)n(C)c2cnc3cc(F)c(-c4ccc(OCCCN5CCCC5)nc4F)cc3c21 [Example 13, 7-fluoro-8-[2-fluoro-6-(3-pyrrolidin-1-ylpropoxy)-3-pyridyl]-1-isopropyl-3-methyl-imidazo[4,5-c]quinolin-2-one]
> 30 | 4.52 | CC(C)n1c(=O)n(C)c2cnc3cc(F)c(-c4ccc(OCCCN5CCC5)nc4)cc3c21 [Example 4, 8-[6-[3-(azetidin-1-yl)propoxy]-3-pyridyl]-7-fluoro-1-isopropyl-3-methyl-imidazo[4,5-c]quinolin-2-one]
> 30 | > 30 | CC(C)n1c(=O)[nH]c2cnc3cc(F)c(-c4ccc(OCCCN5CCCCC5)nc4)cc3c21 [Example 18, 7-Fluoro-1-isopropyl-8-[6-[3-(1-piperidyl)propoxy]-3-pyridyl]-3H-imidazo[4,5-c]quinolin-2-one]
> 30 | 6.18 | CC(C)n1c(=O)n(C)c2cnc3ccc(-c4ccc(OCCCN(C)C)nc4F)cc3c21 [Example 10, 8-[6-[3-(dimethylamino)propoxy]-2-fluoro-3-pyridyl]-1-isopropyl-3-methyl-imidazo[4,5-c]quinolin-2-one]
> 30 | 5.75 | CC(C)n1c(=O)n(C)c2cnc3ccc(-c4ccc(OCCCN5CCCCC5)nc4F)cc3c21 [Example 9, 8-[2-Fluoro-6-[3-(1-piperidyl)propoxy]-3-pyridyl]-1-isopropyl-3-methyl-imidazo[4,5-c]quinolin-2-one]
> 30 | 9.08 | CC(C)n1c(=O)n(C)c2cnc3cc(F)c(-c4ccc(OCCCN5CCC5)nc4F)cc3c21 [Example 16, 8-[6-[3-(azetidin-1-yl)propoxy]-2-fluoro-3-pyridyl]-7-fluoro-1-isopropyl-3-methyl-imidazo[4,5-c]quinolin-2-one]
> 30 | 0.222 | CC(C)n1c(=O)n(C)c2cnc3ccc(-c4ccc(OCCCN5CCCC5)nc4)cc3c21 [Example 7, 1-isopropyl-3-methyl-8-[6-(3-pyrrolidin-1-ylpropoxy)-3-pyridyl]imidazo[4,5-c]quinolin-2-one]
 | 0.661 | CC(C)n1c(=O)n(C)c2cnc3ccc(-c4ccc(OCCCN5CCC5)nc4)cc3c21 [Example 8, 8-[6-[3-(Azetidin-1-yl)propoxy]-3-pyridyl]-1-isopropyl-3-methyl-imidazo[4,5-c]quinolin-2-one]
> 20.7 | 0.184 | CC(C)n1c(=O)n(C)c2cnc3ccc(-c4ccc(OCCCN(C)C)nc4)cc3c21 [Example 6, 8-[6-[3-(dimethylamino)propoxy]-3-pyridyl]-1-isopropyl-3-methyl-imidazo[4,5-c]quinolin-2-one]
9.41 | 27.8 | CC(C)n1c(=O)n(C)c2cnc3cc(F)c(-c4ccc(OCCC[N+]5([O-])CCCCC5)nc4)cc3c21 [Metabolite A, 7-Fluoro-1-isopropyl-3-methyl-8-[6-[3-(1-oxidopiperidin-1-ium-1-yl)propoxy]-3-pyridyl]imidazo[4,5-c]quinolin-2-one]
> 30 | > 30 | CC(C)n1c(=O)n(C)c2cnc3cc(F)c(-c4ccc(OCCCN5CCCCC5)nc4F)cc3c21 [Example 14, 7-fluoro-8-[2-fluoro-6-[3-(1-piperidyl)propoxy]-3-pyridyl]-1-isopropyl-3-methyl-imidazo[4,5-c]quinolin-2-one]
> 30 | 2.89 | CC(C)n1c(=O)n(C)c2cnc3ccc(-c4ccc(OCCCN5CCCC5)nc4F)cc3c21 [Example 12, 8-[2-fluoro-6-(3-pyrrolidin-1-ylpropoxy)-3-pyridyl]-1-isopropyl-3-methyl-imidazo[4,5-c]quinolin-2-one]
> 30 | 11.4 | CC(C)n1c(=O)n(C)c2cnc3cc(F)c(-c4ccc(OCCCN5CCCC5)nc4)cc3c21 [Example 3, 7-Fluoro-1-isopropyl-3-methyl-8-[6-(3-pyrrolidin-1-ylpropoxy)-3-pyridyl]imidazo[4,5-c]quinolin-2-one]

SMILES | IC50 (ATR kinase) [µM] | IC50 (PI3K-α) [µM]
CC(C)n1c(=O)n(C)c2cnc3cc(F)c(-c4ccc(OCCCN5CCCCC5)nc4)cc3c21 [Example 2, 7-Fluoro-1-isopropyl-3-methyl-8-[6-[3-(1-piperidyl)propoxy]-3-pyridyl]imidazo[4,5-c]quinolin-2-one] | > 30 | > 12
